Reference: PMC8765320, “Identification of a Proteasome-Targeting Arylsulfonamide with Potential for the Treatment of Chagas’ Disease” (Antimicrobial Agents and Chemotherapy, 2022)
Like-named read-outs stand apart in the source and are kept apart here.

Key:
[1] = test system: chymotrypsin-like activity of the T. cruzi proteasome; experiment: Proteasome chymotrypsin-like activity luminescence assay; format: biochemical, Trypanosoma cruzi; conditions: at concentrations up to and including 3.3 μM
Protocol: Initially, the impact of compound 1 on the chymotrypsin-like proteolytic activity of the proteasome was assessed using a commercially available indirect enzyme-based luminescent assay. In this assay, activity is monitored in proteasome-enriched T. cruzi epimastigote lysates using Suc-LLVY-aminoluciferin as a substrate ([16]). […] Thus, an alternative route to determine the impact of this arylsulfonamide compound on T. cruzi proteasome function was required.
The effect of inhibitors on the chymotrypsin-like activity of the T. cruzi proteasome was assessed by using a luminescence-based assay, as previously described ([21]).

[2] = test system: T. cruzi epimastigotes; experiment: T. cruzi epimastigote drug sensitivity assay (resazurin); format: cell-based, Trypanosoma cruzi; conditions: Trypanosoma cruzi
Protocol: To examine the effects of test compounds on the growth of T. cruzi epimastigotes, mid-log-phase parasites were seeded into 96-well plates at a cell density of 5 × 10^5 cells ml^−1. Cells were exposed to test compounds over a range of concentrations (2-fold serial dilutions). Cells were incubated for 4 days, and then 20 μl of 2.5 mM resazurin was added to each well, before measuring the fluorescence (excitation, 528 nm; emission, 590 nm), following a further 24 h of incubation. […] In this equation, [I] represents the inhibitor concentration, and m is the slope factor. Experiments were repeated at least two times, and the data are presented as means plus the standard deviations.

[3] = test system: T. cruzi malic enzyme (cTcME); experiment: Malic enzyme assay in clarified epimastigote lysates (NADPH production, 340 nm); format: biochemical, Trypanosoma cruzi
Source text: Malic enzyme (ME) catalyzes the oxidative decarboxylation of malate to pyruvate with the concomitant reduction of NAD(P)^+ to NAD(P)H. In light of our TPP studies, we next sought to determine whether the binding of compound 1 to cTcME inhibits enzymatic activity. The ME-dependent production of NADPH was monitored in clarified lysates of T. cruzi epimastigotes at 340 nm after the addition of malate. In the first instance, this assay was validated using ATR-073, an established inhibitor of cTcME ([27]). […] Similarly, preincubation of lysates with 20 μM and 1 μM concentrations of compound 1 inhibited ME activity by 96 and 68%, respectively (Fig. 4C). […] It should be noted that ATR-073 and compound 1 are structurally similar, both being substituted N-phenyl aryl sulfonamides, this common moiety constituting the pharmacophore of this chemical series.
Logarithmic T. cruzi epimastigotes were harvested (1,690 × g, 10 min, 4°C), washed once in ice-cold phosphate-buffered saline, and resuspended at 2 × 10^9 cells ml^−1 in lysis buffer (10 mM phosphate buffer [pH 7.2], 10 mM EDTA, 5 mM benzamidine, 5 mM phenanthroline, 0.1 mM phenylmethylsulfonyl fluoride) containing 1 mg ml^−1 digitonin, followed by incubation at 28°C for 10 min. The resulting lysate was then centrifuged (13,000 × g, 10 min, 4°C), and the supernatant was harvested and stored on ice. The protein concentration of this clarified lysate was determined by using a standard Bio-Rad protein assay.
The activity of malic enzyme was assayed as previously described ([42]), with minor modifications. T. cruzi clarified lysate (30 μl) was added to a reaction mixture (500 μl final volume) containing 50 mM Tris-HCl buffer (pH 7.6), 1 mM MnCl2, and 0.12 mM NADP^+. Reactions were initiated by the addition of 5 mM L-malate. The reduction of NADP^+ was monitored at 340 nm using a UV-2401 spectrophotometer (Shimadzu). To monitor the effect of test compounds on the activity of malic enzyme, compounds (1 and 20 μM) were preincubated for 10 min with the lysate in the reaction mixture. DMSO (0.2%) was used as control. All enzymatic activities were calculated as Δabs min^−1 mg^−1 of protein.

For CCC(C)NC(=O)c1ccccc1NS(=O)(=O)c1ccc2ccccc2c1 (stereo not shown) [ATR-073], the “effect on the chymotrypsin-like activity of the proteasome” value [1] was “no effect”, the EC50 ([2]; WT, Fig. S3B, one biological replicate) was 49 ± 29 µM and the EC50 ([2]; compound 2-Res V cells (so in the source), Fig. S3B, one biological replicate, read-out: EC50) was 51 ± 18 µM. The EC50 ([2]; epimastigotes, cell line Wild-type, weighted mean, n ≥ 3, read-out: ATR-073 EC50 values) was 34 ± 1 µM, the EC50 ([2]; epimastigotes, cell line cTcME OE, weighted mean, n ≥ 3, read-out: ATR-073 EC50 values) was 32 ± 2 µM and the “reduction in ME activity” value ([3]; preincubation of lysates with 1 μM) was 63%. The “reduction in ME activity” value ([3]; preincubation of lysates with 20 μM) was 96%.
